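In this assay, cells in 96-well plates receive the compound at five concentrations for 48 hours. Endpoints are linearly interpolated between the surrounding concentrations. Here, GI50 denotes the concentration required for 50% inhibition of growth. TGI: total growth inhibition.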

For one test, the system named is DLD-1 colon. The test is described as follows: NCI tumour cell line growth inhibition, 48 h.
For the compound `O=C1N[C@@H]2CCCC[C@@H]2C12CCCCC2`, the TGI was > 100 µM.
In the case of `COc1ccc2ccccc2c1C1=NC(C)(C)CO1`, the TGI was > 100 µM.
As for `NC1=NC(Cn2nc(-c3ccccc3)c3ccccc3c2=O)=NNC(=O)N1`, the TGI is > 100 µM.
As for `O=C(NCCc1ccccc1)C1C(=O)C(=O)N(CCc2ccccc2)C1=O` (stereo unspecified), the TGI is > 100 µM.
The compound `OC(c1ccccc1Br)(c1ccccc1Br)C(F)(F)F` had a TGI of 97.6 µM.
Regarding `NC(N)=NCCCC(NCc1c2ccccc2nc2ccccc12)C(=O)O` (stereo unspecified), the TGI came to 50.5 µM.
In the case of `CC(=O)OC1COC(N2CCc3cc([N+](=O)[O-])ccc32)C(OC(C)=O)C1OC(C)=O` (stereo unspecified), the TGI is > 100 µM.
On the same count and under the same terms, the figure for `CCOC(=O)C1S(=O)(=O)OCCOS1(=O)=O` is > 100 µM.
Same read-out and setting: the figure for `CC12OC(=O)C(C#N)C1(C)C1C(=O)CCCC12` (stereo unspecified) is > 100 µM; for `Cc1nc2ccccc2c(=O)n1/N=C(\N=Nc1ccccc1Cl)c1ccccc1Cl` it is > 100 µM; for `O=[N+]([O-])c1ccc(-c2ccc(C3=Nn4c(CNc5ccccc5Cl)nnc4SC3)o2)cc1` it is > 100 µM.
Turning to `CCCC(=O)CC(C)C(=O)C(=O)NC12CC3CC(CC(C3)C1)C2` (stereo unspecified), the TGI was > 100 µM.
As to `CC(=O)OCC(=O)[C@@]1(O)CC[C@H]2[C@@H]3C[C@H](C)C4=CC(=O)C=C[C@]4(C)[C@@]3(F)[C@@H](O)C[C@@]21C`, the TGI was > 100 µM.
As to `COc1cc(/C=C/c2csnn2)cc(OC)c1OC`, the TGI was > 100 µM.
As for `c1ccc(C(c2ccccc2)c2ccccn2)cc1`, the TGI is > 100 µM.

The next test deals with LOX IMVI melanoma. Put plainly: NCI tumour cell line growth inhibition, 48 h.
For the compound `CCOC(=O)C1=C(NC)OCC1=O`, the TGI was > 100 µM.
For `CCOC(=O)C1(C)CCC(C(C(=O)O)C(=O)O)CC1=O` (stereo unspecified), the TGI is > 100 µM.
`COC(=O)C1=C(C(=O)OC)C2(c3ccccc3)OC1(c1ccccc1)c1cc3ccccc3cc12` yielded a TGI of 2.71 µM.
Compound `CC1NOC(=O)C1N=Nc1ccc(Cl)cc1Cl` (stereo unspecified) had a TGI of 66.1 µM.
On the same count and under the same terms, the figure for `O=C(c1ccccc1)[C@H]1Nc2ccc(Cl)cc2[C@H]2CCC[C@@H]12` is 19.9 µM.
Consider `CC(=O)Nc1ccc(C2CC(c3ccc([N+](=O)[O-])cc3)=Nc3ccccc3S2=O)cc1` (stereo unspecified), for which the TGI amounted to 31.8 µM.
Same read-out and setting: then `COc1cc(/C=C2\NC(=O)C(Cc3cc(OC)c(OC)c(C)c3OC)N(C(C)=O)C2=O)c(OC)c(C)c1OC` (stereo unspecified), with > 100 µM; and `C[C@H](C(=O)O)C(=O)NC(=O)N(Cc1ccccc1)N=O`, with > 100 µM; and `NNC(=O)C(=O)NN=C(C(Cl)(Cl)CO)C(Cl)(Cl)CO`, with 35.3 µM.
In the case of `O=C1N[C@@H]2CCCC[C@@H]2C12CCCCC2`, the TGI is > 100 µM.
Take `O=C(NCCc1ccccc1)C1C(=O)C(=O)N(CCc2ccccc2)C1=O` (stereo unspecified): the TGI was > 100 µM.
In turn, `OC(c1ccccc1Br)(c1ccccc1Br)C(F)(F)F` registered a TGI of 40.2 µM.
In turn, `NC(N)=NCCCC(NCc1c2ccccc2nc2ccccc12)C(=O)O` (stereo unspecified) registered a TGI of 97.9 µM.
Turning to `CC(=O)OC1COC(N2CCc3cc([N+](=O)[O-])ccc32)C(OC(C)=O)C1OC(C)=O` (stereo unspecified), the TGI is > 100 µM.
Turning to `CCOC(=O)C1S(=O)(=O)OCCOS1(=O)=O`, the TGI is > 100 µM.
Same read-out and setting: the figure for `CC12OC(=O)C(C#N)C1(C)C1C(=O)CCCC12` (stereo unspecified) is > 100 µM; for `Cc1nc2ccccc2c(=O)n1/N=C(\N=Nc1ccccc1Cl)c1ccccc1Cl` it is > 100 µM; for `O=[N+]([O-])c1ccc(-c2ccc(C3=Nn4c(CNc5ccccc5Cl)nnc4SC3)o2)cc1` it is > 100 µM.
Take `Cc1cc(Br)c(NC(=O)c2c(-c3c(Cl)cccc3Cl)noc2C)c(Br)c1`: the GI50 is > 100 µM and the TGI is > 100 µM.
Take `OCC1CC[N-]CC1.OCC1CC[N-]CC1.[Cl][Pt+2]([Cl])([Cl])[Cl]`: the GI50 is 11.4 µM.
As to `CCCC(=O)CC(C)C(=O)C(=O)NC12CC3CC(CC(C3)C1)C2` (stereo unspecified), the TGI was > 100 µM.
As for `CC(=O)OCC(=O)[C@@]1(O)CC[C@H]2[C@@H]3C[C@H](C)C4=CC(=O)C=C[C@]4(C)[C@@]3(F)[C@@H](O)C[C@@]21C`, the TGI was > 100 µM.
In the case of `OCCCCC#Cc1ccccc1C#Cc1cccc(C(F)(F)F)c1`, the GI50 was 17.5 µM and the TGI was 31.8 µM.
In the case of `COc1cc(/C=C/c2csnn2)cc(OC)c1OC`, the TGI was > 100 µM.
For the compound `c1ccc(C(c2ccccc2)c2ccccn2)cc1`, the TGI is > 100 µM.
`CC(C)[C@@H]1CC[C@]2(CO2)[C@@H]2C(=O)OCC(C(=O)O)=C[C@H]21`: the GI50 was 0.331 µM and the TGI was 1.42 µM.
For `COc1ccc(/C=C2\CCC/C(=C\c3ccc(OC)c(OC)c3)C2=O)cc1OC`, the GI50 was 1.15 µM and the TGI amounted to 9.02 µM.

In another test the test system is HOP-92 NSCLC. Put plainly: NCI tumour cell line growth inhibition, 48 h.
Take `CCOC(=O)C1=C(NC)OCC1=O`: the TGI is > 100 µM.
`CCOC(=O)C1(C)CCC(C(C(=O)O)C(=O)O)CC1=O` (stereo unspecified): the TGI is > 100 µM.
`COC(=O)C1=C(C(=O)OC)C2(c3ccccc3)OC1(c1ccccc1)c1cc3ccccc3cc12` had a TGI of 2.44 µM.
`CC1NOC(=O)C1N=Nc1ccc(Cl)cc1Cl` (stereo unspecified) registered a TGI of 44.3 µM.
In the case of `COc1ccc2nc(NC(=O)C(=O)CC(=O)c3ccc([N+](=O)[O-])cc3)sc2c1`, the TGI is > 100 µM.
Turning to `COc1cc(/C=C2\NC(=O)C(Cc3cc(OC)c(OC)c(C)c3OC)N(C(C)=O)C2=O)c(OC)c(C)c1OC` (stereo unspecified), the TGI is > 100 µM.
Take `NNC(=O)C(=O)NN=C(C(Cl)(Cl)CO)C(Cl)(Cl)CO`: the TGI is 83.7 µM.
As for `COc1ccc2ccccc2c1C1=NC(C)(C)CO1`, the TGI was > 100 µM.
In the case of `NC1=NC(Cn2nc(-c3ccccc3)c3ccccc3c2=O)=NNC(=O)N1`, the TGI was > 100 µM.
`O=C(NCCc1ccccc1)C1C(=O)C(=O)N(CCc2ccccc2)C1=O` (stereo unspecified): the TGI was > 100 µM.
Still for that read-out and setting: the figure for `NC(N)=NCCCC(NCc1c2ccccc2nc2ccccc12)C(=O)O` (stereo unspecified) is > 83.5 µM.
Turning to `CC(=O)OC1COC(N2CCc3cc([N+](=O)[O-])ccc32)C(OC(C)=O)C1OC(C)=O` (stereo unspecified), the TGI was > 100 µM.
Still for that read-out and setting: the figure for `CCOC(=O)C1S(=O)(=O)OCCOS1(=O)=O` is > 100 µM; for `Cc1nc2ccccc2c(=O)n1/N=C(\N=Nc1ccccc1Cl)c1ccccc1Cl` it is 43.7 µM.
`O=[N+]([O-])c1ccc(-c2ccc(C3=Nn4c(CNc5ccccc5Cl)nnc4SC3)o2)cc1`: the TGI was > 100 µM.
As to `Cc1cc(Br)c(NC(=O)c2c(-c3c(Cl)cccc3Cl)noc2C)c(Br)c1`, the GI50 was > 100 µM and the TGI was > 100 µM.
Turning to `OCC1CC[N-]CC1.OCC1CC[N-]CC1.[Cl][Pt+2]([Cl])([Cl])[Cl]`, the GI50 is 34.2 µM and the TGI worked out at 87 µM.
On to `CCCC(=O)CC(C)C(=O)C(=O)NC12CC3CC(CC(C3)C1)C2` (stereo unspecified), for which the TGI was > 100 µM.

For the origin of these results see PubChem BioAssay (NCI).
